Laboratory results reported in patent US8952192B2, “Phosphorylated and branched dihydroxy-pentane-dione (DPD) analogs as quorum sensing inhibitors in bacteria” (University of Maryland, College Park, priority 2011, dated 2015).
“Also recorded” adds a separate entry of the source.

Key:
P. aeruginosa PAO1 = test: Tri-species synthetic ecosystem (E. coli, S. typhimurium, P. aeruginosa): pyocyanin production; type: cell-based; conditions: tri-species culture, 40 μM analog, no exogenous AI-2, 24 h
Procedure: Effect of analogs in a tri-species synthetic ecosystem. […] Isobutyl-DPD (40 μM) and phenyl-DPD (40 μM) were added to a tri-species synthetic ecosystem created by culturing E. coli, S. typhimurium and P. aeruginosa in the same tubes. In order to differentiate and monitor the QS response from each organism, different and orthogonal reporter strains were used; in E. coli, AI-2 mediated dsRED expression, in S. typhimurium, AI-2 mediated β-galactosidase production; and in P. aeruginosa effects of AI-2 were examined for pyocyanin production.
S. typhimurium MET708, P. aeruginosa PAO1 and E. coli W3110 pCT6 dsRED were each cultured separately overnight in LB medium supplemented with the appropriate antibiotic. P. aeruginosa PAO1, S. typhimurium MET708 and E. coli W3110 pCT6 dsRED were diluted (25 μL:2.5 μL:100 μL) of the overnight culture respectively, into a single 2 mL final volume of fresh LB medium without antibiotics. […] The S. typhimurium lacZ (β-galactosidase) activity was measured after 4 h. The E. coli response was determined after 24 h, by fixing the cells with 1:1 cold 4% paraformaldehyde and using flow cytometric analysis. Samples were analyzed by flow cytometry (FACS Canto II, BD 394 Biosciences), with 30,000 gated events analyzed per sample. […]

[1] = tested on: lsr expression in S. typhimurium (lsr-lacZ reporter strains); test: QS response (lsr expression): AI-2 dependent β-galactosidase production, Miller assay; type: cell-based, Salmonella typhimurium
Procedure: The panel of C1-alkyl analogs was screened to identify QS modulators in the enteric bacteria E. coli and S. typhimurium. Transcription of the QS associated lsr operon, by using lsr-lacZ reporter strains (Table 2) which produce β-galactosidase in response to added AI-2 was monitored. In order to first establish if the analogs were agonists or antagonists in the QS circuit, the analogs were incubated with E. coli LW7 pLW11 and S. typhimurium MET715 (FIG. 19a-b) both of which are luxS^−. None of the analogs, except ethyl-DPD behaved as agonists for lsr expression. Previous studies investigating AI-2 antagonism in P. aeruginosa or in S. typhimurium were carried out using chemically synthesized AI-2 added to luxS^− cells. […] The same trends were obtained by adding a 1:1 ratio of enzymatically synthesized AI-2 and DPD analogs to the luxS^− strains E. coli LW7 pLW11 and S. typhimurium MET715 (FIG. 11a-b). None of the tested DPD analogs were bacteriocidal or bacteriostatic as the OD600 values of E. coli ZK126 pLW11 and S. typhimurium MET708 in the presence and absence of the analogs were similar (FIG. 10). Though the QS circuitry of the enteric organisms, E. coli and S. typhimurium are homologous they respond differently to the DPD analogs. The E. coli QS circuitry is susceptible to being silenced by a variety of DPD analogs of different shapes and sizes whereas in S. typhimurium, only a handful of DPD analogs could antagonize the action of AI-2. […] Isobutyl-DPD emerged as an effective and non-species-specific quencher; causing significant lsr expression knockdowns in both E. coli and S. typhimurium.
The QS response indicated by lsr gene expression was analyzed in pure culture studies by culturing E. coli LW7 pLW11, E. coli ZK126 pLW11 and S. typhimurium MET708, S. typhimurium MET715 overnight in LB medium supplemented with appropriate antibiotics as stated previously. These cells were then diluted into fresh LB medium (with antibiotics) and grown to an OD600 of 0.8-1.0 at 30° C., 250 rpm. Cells were then collected by centrifugation at 10,000×g for 10 minutes, and resuspended in 10 mM phosphate buffer. AI-2 (20 μM) and the respective analog (20 μM) were added to the E. coli or S. typhimurium suspension for 2 hours at 37° C. AI-2 dependent β-galactosidase production was quantified by the Miller assay.
The QS response indicated by lsr gene expression was analyzed in pure culture studies by culturing E. coli LW7 pLW11 and S. typhimurium MET715 overnight at 30° C. in LB medium supplemented with appropriate antibiotics as stated previously. These cells were then diluted into fresh LB medium (with antibiotics) and grown to an OD600 of 0.4-0.8 at 37° C., 250 rpm. Cells were then collected by centrifugation at 10,000×g for 10 min and resuspended in 10 mM phosphate buffer. AI-2 (20 μM) and the respective analog (20 μM) were added to the E. coli or S. typhimurium suspension for 2 h at 37° C. AI-2 dependent β-galactosidase production was quantified by the Miller assay.
The QS response indicated by lsr gene expression was analyzed in pure culture studies by culturing E. coli LW7 pLW11, E. coli ZK126 pLW11 and S. typhimurium MET708, S. typhimurium MET715 overnight in LB medium individually supplemented with appropriate antibiotics, as specified above. These cells were diluted into fresh LB medium (with antibiotics) and grown to an OD600 of 0.8-1.0 at 30° C., 250 rpm. Cells were collected by centrifugation at 10,000×g for 10 minutes, and resuspended in 10 mM phosphate buffer. AI-2 (20 μM) and the respective analog (20 μM) were added to the E. coli or S. typhimurium suspension for 2 hours at 37° C. AI-2 dependent β-galactosidase production was quantified by the Miller assay.

SMILES	QS inhibition in P. aeruginosa (pyocyanin production) (P. aeruginosa PAO1)	effect on native lsr expression (QS response) ([1]; S. typhimurium MET708 (luxS+), cells produce their own AI-2)	decrease of lacZ expression ([1]; S. typhimurium MET715 (LuxS−), 20 μM AI-2 + 20 μM analog)	IC50 ([1]; concentration reducing lsr expression (β-galactosidase production) to 50% in the presence of 20 μM exogenously added synthetic DPD, read-out: IC50 of analog (nM) to inhibit QS in S. typhimurium)
O=C(C(=O)C(O)CO)c1ccccc1 (stereo not shown) [Phenyl-DPD, Phenyl DPD]	retained some activity			
CC(C)CC(=O)C(=O)[C@@H](O)CO [Isobutyl-DPD, isobutyl-DPD]		significant knocked down; also recorded: significantly inhibited signaling	about 50%	20000 nM
